# Measurements published in patent publication US11833207B2, “Adipocyte-targeting DNA nanodrug and preparation and uses thereof” (HUNAN UNIVERSITY, priority 2020, dated 2023).
# Assays:
# [1] = EPR measurement of O2·− scavenging (DEPMPO trapper)
# Description: Electron paramagnetic resonance (EPR) measurements were performed to evaluate the O2·^−- and ·OH-scavenging abilities of DNA hybrid nanostructures TADN. DEPMPO was used as the trapper. O2·^− was generated by dissolving KO2 in DMSO/crown ether (0.2 M). ·OH was produced by the Fenton-type reaction using H2O2 and CuSO4.
# 3T3-L1 preadipocytes = assay type: cell-based; settings: mouse, 24 h
# Description: 3T3-L1 preadipocytes were seeded in a 96-well plate at 10^4/well. After culturing for 24 h, the preadipocytes were added with TA, TDM or TADN for another 24 h culture. The culture medium was removed, and the cells were washed twice with PBS, followed by the addition of 100 μL of fresh culture medium and 10 μL of CCK-8 for the CCK-8 assay according to the manufacturer's protocol. The UV absorbance of each well at 450 nm was recorded using a Synergy 2 multifunctional microplate reader (Bio-Tek, Winooski, Vt.).
# BSA = BSA (Bos taurus, UniProt P02769); assay: Nonspecific protein (BSA) absorption by BSA fluorescence
# BSA, sequence (P02769 25-607): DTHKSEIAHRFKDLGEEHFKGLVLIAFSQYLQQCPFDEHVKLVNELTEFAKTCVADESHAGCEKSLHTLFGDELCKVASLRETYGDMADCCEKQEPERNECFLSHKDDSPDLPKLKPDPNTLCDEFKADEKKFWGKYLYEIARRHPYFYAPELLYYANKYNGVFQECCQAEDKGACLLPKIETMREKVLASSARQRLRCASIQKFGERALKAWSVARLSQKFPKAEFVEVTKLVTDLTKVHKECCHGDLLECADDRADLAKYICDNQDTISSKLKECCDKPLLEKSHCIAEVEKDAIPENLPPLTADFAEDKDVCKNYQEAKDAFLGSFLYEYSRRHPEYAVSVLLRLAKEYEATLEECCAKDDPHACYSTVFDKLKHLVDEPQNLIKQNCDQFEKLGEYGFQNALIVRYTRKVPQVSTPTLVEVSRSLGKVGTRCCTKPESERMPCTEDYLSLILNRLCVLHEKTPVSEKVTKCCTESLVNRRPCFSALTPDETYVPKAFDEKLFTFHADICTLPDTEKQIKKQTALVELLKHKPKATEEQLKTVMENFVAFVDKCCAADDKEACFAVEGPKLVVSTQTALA
smiles,measurement,setting,value
"O=C(OC[C@H]1O[C@@H](OC(=O)c2cc(O)c(O)c(OC(=O)c3cc(O)c(O)c(O)c3)c2)[C@H](OC(=O)c2cc(O)c(O)c(OC(=O)c3cc(O)c(O)c(O)c3)c2)[C@@H](OC(=O)c2cc(O)c(O)c(OC(=O)c3cc(O)c(O)c(O)c3)c2)[C@@H]1OC(=O)c1cc(O)c(O)c(OC(=O)c2cc(O)c(O)c(O)c2)c1)c1cc(O)c(O)c(OC(=O)c2cc(O)c(O)c(O)c2)c1 [TA, tannic acid]",O2·−-scavenging activity,[1]; EPR,comparable scavenging activity to TADN
same,O2·−-scavenging stability,[1]; after 24 h,almost disappeared
same,concentration above which cytotoxicity increases,3T3-L1 preadipocytes,above 25 μM
same,protein adsorption,BSA,tended to absorb proteins
